Data as given in US7642251B2, “Compounds for the treatment of hepatitis C” (Bristol-Myers Squibb Company, priority 2007, dated 2010).
Where two headings read alike, the source gives them in different places.

Key:
HCV NS5B = target: T1, HCV NS5B (Hepatitis C virus genotype 1b, UniProt Q9WMX2); assay: Modified HCV NS5B RdRp enzyme assay (preincubation protocol); format: biochemical
T1 construct: The cDNA encoding the NS5B protein of HCV, genotype 1b; made in house; host or cells: E. coli BL21(DE3)
Protocol: HCV NS5B RdRp cloning, expression, and purification. The cDNA encoding the NS5B protein of HCV, genotype 1b, was cloned into the pET21a expression vector. The protein was expressed with an 18 amino acid C-terminal truncation to enhance the solubility. The E. coli competent cell line BL21(DE3) was used for expression of the protein. Cultures were grown at 37° C. for ˜4 hours until the cultures reached an optical density of 2.0 at 600 nm. The cultures were cooled to 20° C. and induced with 1 mM IPTG. Fresh ampicillin was added to a final concentration of 50 μg/ml and the cells were grown overnight at 20° C.
Cell pellets (3 L) were lysed for purification to yield 15-24 mgs of purified NS5B. The lysis buffer consisted of 20 mM Tris-HCl, pH 7.4, 500 mM NaCl, 0.5% triton X-100, 1 mM DTT, 1 mM EDTA, 20% glycerol, 0.5 mg/ml lysozyme, 10 mM MgCl2, 15 ug/ml deoxyribonuclease I, and Complete™ protease inhibitor tablets (Roche). After addition of the lysis buffer, frozen cell pellets were resuspended using a tissue homogenizer. To reduce the viscosity of the sample, aliquots of the lysate were sonicated on ice using a microtip attached to a Branson sonicator. The sonicated lysate was centrifuged at 100,000×g for 1 hr at 4° C. and filtered through a 0.2 μm filter unit (Corning).
The protein was purified using three sequential chromatography steps: Heparin sepharose CL-6B, polyU sepharose 4B, and Hitrap SP sepharose (Pharmacia). The chromatography buffers were identical to the lysis buffer but contained no lysozyme, deoxyribonuclease I, MgCl2 or protease inhibitor and the NaCl concentration of the buffer was adjusted according to the requirements for charging the protein onto the column. Each column was eluted with a NaCl gradient which varied in length from 5-50 column volumes depending on the column type. After the final chromatography step, the resulting purity of the enzyme is >90% based on SDS-PAGE analysis. The enzyme was aliquoted and stored at −80° C.
Standard HCV NS5B RdRp enzyme assay. HCV RdRp genotype 1b assays were run in a final volume of 60 μl in 96 well plates (Costar 3912). The assay buffer is composed of 20 mM Hepes, pH 7.5, 2.5 mM KCl, 2.5 mM MgCl2, 1 mM DTT, 1.6 U RNAse inhibitor (Promega N2515), 0.1 mg/ml BSA (Promega R3961), and 2% glycerol. All compounds were serially diluted (3-fold) in DMSO and diluted further in water such that the final concentration of DMSO in the assay was 2%. HCV RdRp genotype 1b enzyme was used at a final concentration of 28 nM. A polyA template was used at 6 nM, and a biotinylated oligo-dT12 primer was used at 180 nM final concentration. Template was obtained commercially (Amersham 27-4110). Biotinylated primer was prepared by Sigma Genosys. 3H-UTP was used at 0.6 μCi (0.29 μM total UTP). Reactions were initiated by the addition of enzyme, incubated at 30° C. for 60 min, and stopped by adding 25 μl of 50 mM EDTA containing SPA beads (4 μg/μl, Amersham RPNQ 0007). Plates were read on a Packard Top Count NXT after >1 hr incubation at room temperature.
Modified HCV NS5B RdRp enzyme assay. A modified enzyme assay was performed essentially as described for the standard enzyme assay except for the following: The biotinylated oligo dT12 primer was precaptured on streptavidin-coated SPA beads by mixing primer and beads in assay buffer and incubating at room temperature for one hour. Unbound primer was removed after centrifugation. The primer-bound beads were resuspended in 20 mM Hepes buffer, pH 7.5 and used in the assay at final concentrations of 20 nM primer and 0.67 μg/μl beads. Order of addition in the assay: enzyme (14 nM) was added to diluted compound followed by the addition of a mixture of template (0.2 nM), 3H-UTP (0.6 μCi, 0.29 μM), and primer-bound beads, to initiate the reaction; concentrations given are final. Reactions were allowed to proceed for 4 hours at 30° C.
IC50 values for compounds were determined using seven different [I]. […]

HCV replicon cells = assay: HCV replicon FRET assay; format: cell-based; conditions: Hepatitis C virus
Excerpt: FRET Assay Preparation. To perform the HCV FRET screening assay, 96-well cell culture plates were used. The FRET peptide (Anaspec, Inc.) (Taliani et al., Anal. Biochem. 1996, 240, 60-67) contains a fluorescence donor, EDANS, near one end of the peptide and an acceptor, DABCYL, near the other end. The fluorescence of the peptide is quenched by […] resonance energy transfer (RET) between the donor and the acceptor, but as the NS3 protease cleaves the peptide the products are released from RET quenching and the fluorescence of the donor becomes apparent. The assay reagent was made as follows: 5× cell Luciferase cell culture lysis reagent from Promega (#E153A) diluted to 1× with dH2O, NaCl added to 150 mM final, the FRET peptide diluted to 20 μM final from a 2 mM stock.
To prepare plates, HCV replicon cells, with or without a Renilla luciferase reporter gene, were trypsinized and placed into each well of a 96-well plate with titrated test compounds added in columns 3 through 12; columns 1 and 2 contained a control compound (HCV protease inhibitor), and the bottom row contained cells without compound. The plates were then placed in a CO2 incubator at 37° C.
Assays. Subsequent to addition of the test compounds described above (FRET Assay Preparation), at various times the plate was removed and Alamar blue solution (Trek Diagnostics, #00-100) was added per well as a measure of cellular toxicity. After reading in a Cytoflour 4000 instrument (PE Biosystems), plates were rinsed with PBS and then used for FRET assay by the addition of 30 ul of the FRET peptide assay reagent described above (FRET Assay Preparation) per well. The plate was then placed into the Cytoflour 4000 instrument which had been set to 340 excite/490 emission, automatic mode for 20 cycles and the plate read in a kinetic mode. Typically, the signal to noise using an endpoint analysis after the reads was at least three-fold. Alternatively, after Alamar blue reading, plates were rinsed with PBS, 50 ul of DMEM (high glucose) without phenol red was added and plates were then used for luciferase assay using the Promega Dual-Glo Luciferase Assay System.
Compound analysis was determined by quantification of the relative HCV replicon inhibition and the relative cytotoxicity values. To calculate cytoxicity values, the average Alamar Blue fluorescence signals from the control wells were set as 100% non-toxic. The individual signals in each of the compound test wells were then divided by the average control signal and multiplied by 100% to determine […]. To calculate the HCV replicon inhibition values, an average background value was obtained from the two wells containing the highest amount of HCV protease inhibitor at the end of the assay period. These numbers were similar to those obtained from naïve Huh-7 cells.
The background numbers were then subtracted from the average signal obtained from the control wells and this number was used as 100% activity. The individual signals in each of the compound test wells were then divided by the averaged control values after background subtraction and multiplied by 100% to determine percent activity. EC50 values for a protease inhibitor titration were calculated as the concentration which caused a 50% reduction in FRET or luciferase activity. The two numbers generated for the compound plate, percent cytoxicity and percent activity were used to determine compounds of interest for further analysis.

[1] = preincubation protocol, read-out: IC50

T1 sequence (Q9WMX2 2420-2992): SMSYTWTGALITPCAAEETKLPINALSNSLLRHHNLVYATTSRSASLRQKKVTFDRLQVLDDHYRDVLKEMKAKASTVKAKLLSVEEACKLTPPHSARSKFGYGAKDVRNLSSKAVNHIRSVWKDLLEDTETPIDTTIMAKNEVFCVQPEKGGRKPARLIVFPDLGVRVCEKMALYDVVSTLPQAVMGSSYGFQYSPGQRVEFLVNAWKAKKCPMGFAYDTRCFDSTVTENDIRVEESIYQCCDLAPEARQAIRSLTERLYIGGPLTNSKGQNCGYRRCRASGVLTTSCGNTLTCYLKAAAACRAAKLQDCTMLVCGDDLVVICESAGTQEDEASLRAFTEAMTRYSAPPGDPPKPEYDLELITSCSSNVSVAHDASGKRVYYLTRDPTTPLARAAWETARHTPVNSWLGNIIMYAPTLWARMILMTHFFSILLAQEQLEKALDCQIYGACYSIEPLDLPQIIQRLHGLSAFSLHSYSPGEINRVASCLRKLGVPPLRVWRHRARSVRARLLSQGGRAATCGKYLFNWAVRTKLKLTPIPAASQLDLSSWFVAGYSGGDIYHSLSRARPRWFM

Row | Compound | IC50 (HCV NS5B; [1]) [nM] | EC50 (HCV replicon cells; FRET assay, read-out: EC50) [nM] | IC50 (HCV NS5B) [nM] | EC50 (HCV replicon cells) [nM]
1 | COc1ccc2c(c1)C=C(c1nccc(C(=O)N3CCOCC3)n1)Cn1c-2c(C2CCCCC2)c2ccc(C(=O)NS(=O)(=O)N(C)C)cc21 | 4.58 to 500 | 4.58 to 500 |  | 
2 | COc1ccc2c(c1)CC(c1cc(C(=O)N3CCOCC3)ccn1)Cn1c-2c(C2CCCCC2)c2ccc(C(=O)NS(=O)(=O)N(C)C)cc21 (stereo not drawn) | 4.58 to 500 | 4.58 to 500 |  | 
3 | COc1ccc2c(c1)C=C(c1ccccc1OCCN1CCOCC1)Cn1c-2c(C2CCCCC2)c2ccc(C(=O)NS(=O)(=O)C(C)C)cc21 | 4.58 to 500 | 4.58 to 500 |  | 
4 | COc1ccc2c(c1)C=C(c1cc(C(F)(F)F)ccc1N1CCOCC1)Cn1c-2c(C2CCCCC2)c2ccc(C(=O)NS(=O)(=O)C(C)C)cc21 | > 500 | > 500 |  | 
5 | COc1ccc2c(c1)C=C(c1ncccc1C(=O)N1C3CCC1CN(C)C3)Cn1c-2c(C2CCCCC2)c2ccc(C(=O)NS(=O)(=O)N(C)C)cc21 |  |  | 4.58 to 500 | 4.58 to 500
6 | COc1ccc2c(c1)C=C(c1nccc(N(C)C)n1)Cn1c-2c(C2CCCCC2)c2ccc(C(=O)NS(=O)(=O)N(C)C)cc21 | 4.58 to 500 | > 500 |  | 
7 | COc1ccc2c(c1)C=C(c1ncccc1S(=O)(=O)N1CCOCC1)Cn1c-2c(C2CCCCC2)c2ccc(C(=O)NS(=O)(=O)N(C)C)cc21 | 4.58 to 500 | 4.58 to 500 |  | 
8 | COc1ccc2c(c1)C=C(c1ccccc1C(=O)N1C3CCC1CN(C)C3)Cn1c-2c(C2CCCCC2)c2ccc(C(=O)NS(=O)(=O)C(C)C)cc21 |  |  | 4.58 to 500 | 4.58 to 500
9 | COc1ccc2c(c1)C=C(c1ncccc1C(=O)N1C3CCC1CN(C)C3)Cn1c-2c(C2CCCCC2)c2ccc(C(=O)O)cc21 |  |  | 4.58 to 500 | 4.58 to 500
10 | COc1ccc2c(c1)C=C(c1ncccc1C(=O)N1CCCC1)Cn1c-2c(C2CCCCC2)c2ccc(C(=O)NS(=O)(=O)N(C)C)cc21 | 4.58 to 500 | 4.58 to 500 |  | 
11 | COc1ccc2c(c1)C=C(c1cnc(OC)c3[nH]ccc13)Cn1c-2c(C2CCCCC2)c2ccc(C(=O)O)cc21 | 4.58 to 500 | 4.58 to 500 |  | 
12 | COc1ccc2c(c1)CC(c1ncccc1C(=O)N1CCOCC1)Cn1c-2c(C2CCCCC2)c2ccc(C(=O)NS(=O)(=O)N(C)C)cc21 (stereo not drawn) | 4.58 to 500 | 4.58 to 500 |  | 
13 | COc1ccc2c(c1)C1CC1(c1ncccc1C(=O)N1CCN(C)CC1)Cn1c-2c(C2CCCCC2)c2ccc(C(=O)NS(=O)(=O)N(C)C)cc21 (stereo not drawn) | 4.58 to 500 | 4.58 to 500 |  | 
14 | COc1ccc2c(c1)C=C(c1cc([N+](=O)[O-])c3[nH]ccc3c1)Cn1c-2c(C2CCCCC2)c2ccc(C(=O)O)cc21 | 4.58 to 500 | > 500 |  | 
15 | COc1ccc2c(c1)C=C(c1ccccc1C(=O)N1C3CCC1CN(C)C3)Cn1c-2c(C2CCCCC2)c2ccc(C(=O)O)cc21 |  |  | 4.58 to 500 | 4.58 to 500
